{"source": "patent US12390447B2", "about": "“Sirtuin 6 protein deacylase (SIRT6) activators” (Wisconsin Alumni Research Foundation, priority 2019, dated 2025)", "target": "T1, SIRT1 (Homo sapiens, UniProt Q96EB6)", "T1 sequence (Q96EB6 1-747)": "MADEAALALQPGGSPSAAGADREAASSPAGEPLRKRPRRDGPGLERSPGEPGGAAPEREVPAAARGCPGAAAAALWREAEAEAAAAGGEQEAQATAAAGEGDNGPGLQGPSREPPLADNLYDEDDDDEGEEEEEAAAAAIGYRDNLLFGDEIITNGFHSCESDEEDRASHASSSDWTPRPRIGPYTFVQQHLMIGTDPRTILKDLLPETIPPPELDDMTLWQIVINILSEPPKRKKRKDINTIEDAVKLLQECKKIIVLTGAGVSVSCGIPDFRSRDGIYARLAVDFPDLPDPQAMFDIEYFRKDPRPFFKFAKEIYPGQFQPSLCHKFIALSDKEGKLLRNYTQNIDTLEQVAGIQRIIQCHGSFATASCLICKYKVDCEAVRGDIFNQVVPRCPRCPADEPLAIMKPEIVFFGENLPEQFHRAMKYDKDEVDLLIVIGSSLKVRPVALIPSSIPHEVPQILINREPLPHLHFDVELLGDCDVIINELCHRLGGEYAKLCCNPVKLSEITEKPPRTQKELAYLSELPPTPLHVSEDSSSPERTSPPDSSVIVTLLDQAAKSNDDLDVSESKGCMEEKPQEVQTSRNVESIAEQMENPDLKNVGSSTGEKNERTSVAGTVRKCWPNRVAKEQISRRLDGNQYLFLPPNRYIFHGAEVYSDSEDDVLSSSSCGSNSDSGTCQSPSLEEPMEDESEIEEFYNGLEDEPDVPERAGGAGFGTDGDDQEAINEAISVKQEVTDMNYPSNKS", "test": "SIRT1 deacetylase activity against H3K9ac peptide", "assay_type": "biochemical", "conditions": "400 μM compound", "protocol": "FIGS. 1A-F illustrate the identification of novel SIRT6 activators. (1A) Compound libraries BML-2803, BML-2800, and an additional set of 178 molecules were screened at 100 μM for their ability to stimulate SIRT6 (1 μM) deacetylation of H3K9ac peptide (20 μM) in the presence of 0.5 mM NAD^+. SIRT6 activity was measured by HPLC quantification of H3K9ac and deacetylated product (inset) and fold activations relative to DMSO control were determined and compiled. (1B) Fold-activation of SIRT6 (1 μM) determined in the presence of either 0-400 μM CL4, 0-150 μM TTNPB, 0-100 μM Lysophosphatidic acid (LPA), or 0-200 μM linoleoylglycine (LGly). Maximum fold-activation and EC50 determined by sigmoidal curve fit. […] Constants Km, H3K9ac and kcat were determined by fitting data to Michaelis-Menten equation. (1D) Fold-activations of SIRT1 (0.1 μM), SIRT2 (0.2 μM), SIRT3 (1 μM), SIRT5 (2 μM), and SIRT6 (1 μM) determined in the presence of CL4 (100 μM), TTNPB (50 μM), and LPA (50 μM) relative to DMSO control against 20 μM H3K9ac peptide and 0.5 mM NAD^+. […]\nAll sirtuin deacylation assays were carried out at 37° C. in 20 mM potassium phosphate pH 7.5 with 0.5 mM NAD^+, 10% DMSO, and 20 μM H3K9ac or H3K9myr peptides, unless otherwise noted in legend, and quenched by the addition of 2% TFA final. […] The product and substrate peaks were quantified and ratio of these allowed for quantification of product formation. […]"}
{"smiles": "O=C(O)c1ccc2c(c1)C(=O)N(c1ccc(N(C(=O)c3c(Cl)cc(Cl)cc3Cl)C(=O)c3c(Cl)cc(Cl)cc3Cl)c(Cl)c1)C2=O", "note": "[CL-5D, 2-(3-chloro-4-(2,4,6-trichloro-N-(2,4,6-trichlorobenzoyl)benzamido)phenyl)-1,3-dioxoisoindoline-5-carboxylic acid]", "values": [{"measurement": "SIRT1 deacetylase activity at high activator concentration", "result": "inhibited"}]}
